Measurements from US20260001928A1 (CORTERIA PHARMACEUTICALS, priority 2022, published 2026).
*1 amine or outer side, *2 acyl side, *3 side chain or, on linkers, in order; H or OH if unused. Where a SMILES comes first, the peptide text is derived from it. Side-chain parts run from the residue outwards. [ ]: non-standard residue; d: D form. The star is where a group is joined. C18 diacid = O=C(O)CCCCCCCCCCCCCCCCC(=O)*; γGlu = O=C(O)[C@H](CCC(=O)[*:2])N[*:1]; Api = NC1(C(=O)O)CCNCC1; AEEA = NCCOCCOCC(=O)O; Aib = CC(C)(N)C(=O)O

What was measured:
human CRF2a receptor = target: T1, human CRF2a receptor (Homo sapiens, UniProt Q13324); test: Activity at human CRF2a receptor, cAMP functional assay in TeloHEAC cells; type: cell-based; settings: TeloHEAC cells stably expressing human CRF2a receptor, relative to urocortin 2 (100 nM = 100%)
T1 construct: expressed in transfected cells; host or cells: TeloHEAC cells
T1 sequence (Q13324 1-411): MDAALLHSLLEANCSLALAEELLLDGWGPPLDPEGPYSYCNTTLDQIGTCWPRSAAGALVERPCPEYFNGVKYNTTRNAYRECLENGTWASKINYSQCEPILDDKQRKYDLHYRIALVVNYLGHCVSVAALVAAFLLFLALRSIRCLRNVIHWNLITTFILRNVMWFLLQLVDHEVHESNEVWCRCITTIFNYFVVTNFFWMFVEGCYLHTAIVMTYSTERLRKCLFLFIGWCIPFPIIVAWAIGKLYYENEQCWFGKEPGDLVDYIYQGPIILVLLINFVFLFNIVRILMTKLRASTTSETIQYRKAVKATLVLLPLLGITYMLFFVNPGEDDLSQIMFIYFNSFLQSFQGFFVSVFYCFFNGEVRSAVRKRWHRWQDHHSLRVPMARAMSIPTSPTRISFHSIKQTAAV
Method in brief: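 TeloHEAC cells stably expressing human CRF2a (10000 cells/well) were treated with 16-point 1:2 compound dilutions in HBSS/20 mM HEPES with IBMX for 30 min at 37° C. cAMP was read by HTRF (665/620 nm ratio). EC50 was the concentration giving 50% activation, with 100 nM urocortin 2 set as 100%.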

[1] = Pharmacokinetics in male Sprague Dawley rats after subcutaneous administration; type: in vivo; settings: plasma, rat, SC, 0.05 mg/kg
Method: The pharmacokinetics of UCN-2 derivatives was studied in male Sprague Dawley rats after subcutaneous administration (SC) at 0.05, 0.1, 0.3 or 1 mg/kg. Peptides were formulated as a solution in 10 mM phosphate pH 7.4 buffer+glycerol 85% (2.3% v/v)). […] The supernatant (200 μL) was analyzed by LC-MSMS. Pharmacokinetic parameters were calculated using established non-compartmental methods. The area under the plasma concentration curve versus time (AUC) was determined using Watson LIMS (version 7.6), with linear trapezoidal interpolation in the ascending slope and logarithmic trapezoidal interpolation in the descending slope. The portion of the AUC from the last measurable concentration to infinity was estimated from the equation, Ct/kel, where Ct represents the last measurable concentration and kel is the elimination rate constant. The latter was determined from the concentration curve versus time by linear regression at the terminal phase of the semi-logarithmic plot.

[2] = Chemical stability in buffer (pH 7.4 / pH 4.5), % purity loss; type: physicochemical; settings: 40° C. vs 5° C., 14 or 28 days; for Buffer stability pH 4.5 % purity loss: 100 mM acetate buffer pH 4.5; for Buffer stability pH 7.4 % purity loss: 100 mM phosphate buffer pH 7.4
Method in brief: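 LC-UV gave % loss after 14 or 28 days of storage at 5 °C or 40 °C. Samples were diluted supernatants from compound incubated 1 h at room temperature at 10 mg/mL target, in 100 mM acetate pH 4.5 or 100 mM phosphate pH 7.4.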

[3] = In vitro subcutaneous tissue supernatant (SCts) stability and metabolite identification, rat; type: in vitro ADME; set-up: remaining at 2 h: dose or concentration left out as unconfirmed; settings: male, Sprague Dawley; rat subcutaneous tissue supernatant (SCts), 37° C, 2 h
CFR1R receptor = target: T2, CFR1R receptor (Homo sapiens, UniProt P34998); test: Activity at anti-target CFR1R receptor, cAMP assay in CRF1R-overexpression CHO-K1 cells; type: cell-based; settings: 100% = Sauvagine at 100 nM; for EC50: cAMP
T2 construct: host or cells: CHO-K1 (clone 2)
T2 sequence (P34998 24-415): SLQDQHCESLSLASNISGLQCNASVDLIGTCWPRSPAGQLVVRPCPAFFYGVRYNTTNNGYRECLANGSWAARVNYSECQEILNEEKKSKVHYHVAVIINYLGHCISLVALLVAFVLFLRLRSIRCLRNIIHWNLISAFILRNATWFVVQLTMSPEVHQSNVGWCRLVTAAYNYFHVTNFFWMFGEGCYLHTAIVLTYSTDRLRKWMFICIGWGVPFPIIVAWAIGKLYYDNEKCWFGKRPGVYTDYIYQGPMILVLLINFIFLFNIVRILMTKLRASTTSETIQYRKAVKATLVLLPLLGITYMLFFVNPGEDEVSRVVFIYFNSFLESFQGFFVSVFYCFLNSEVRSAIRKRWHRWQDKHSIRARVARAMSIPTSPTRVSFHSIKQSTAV
Method in brief: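 Grow clone 2 to near confluence at 37° C. under 5% CO2 in F12 (Hams) with 10% FBS and G418, harvest, and freeze in 10% DMSO. Thaw and plate at 4000 cells/well. Then proceed per the TeloHAEC method, normalising to Sauvagine 100 nM as maximum.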

| EC50 (human CRF2a receptor) [nM] | AUC(0-t) [1] [ng·h/mL] | Cmax [1] [ng/mL] | Tmax [1] [h] | half-life [1] [h] | Buffer stability pH 4.5 % purity loss [2] | Buffer stability pH 7.4 % purity loss [2] | remaining at 2 h [3] [%] | Emax (% I) (CFR1R receptor) | EC50 (CFR1R receptor) [nM] | Structure (SMILES) |
| --- | --- | --- | --- | --- | --- | --- | --- | --- | --- | --- |
| 0.55 | 2710 | 159 | 5 | 5.8 | 0.0/0.0 ^ % | 0.0/0.0 ^ % | 74 | −2 | > 250 | CC[C@H](C)[C@H](NC(C)=O)C(=O)N[C@H](C(=O)N[C@@H](CC(C)C)C(=O)N[C@@H](CO)C(=O)N[C@@H](CC(C)C)C(=O)N[C@@H](CC(=O)O)C(=O)N[C@@H](C(=O)N1CCC[C@H]1C(=O)N[C@H](C(=O)N[C@@H](CCCCN)C(=O)N[C@@H](CC(C)C)C(=O)N[C@@H](CCCCNC(=O)COCCOCCNC(=O)COCCOCCNC(=O)CC[C@H](NC(=O)CCCCCCCCCCCCCCCCC(=O)O)C(=O)O)C(=O)N[C@@H](CCCCN)C(=O)N[C@H](C(=O)N[C@@H](CC(C)C)C(=O)N[C@@H](CC(C)C)C(=O)N[C@@H](CCC(=O)O)C(=O)N[C@@H](CCC(N)=O)C(=O)N[C@@H](CCC(=O)O)C(=O)N[C@@H](CCCCN)C(=O)N[C@@H](CCC(N)=O)C(=O)N[C@@H](CCCCN)C(=O)N[C@@H](CCCCN)C(=O)N[C@@H](CCC(N)=O)C(=O)N[C@@H](CCCNC(=N)N)C(=O)N[C@@H](CCC(=O)O)C(=O)N[C@@H](CCC(N)=O)C(=O)N[C@@H](C)C(=O)N[C@@H](CCC(=O)O)C(=O)N[C@H](C(=O)N[C@@H](CC(N)=O)C(=O)NC(C)(C)C(=O)N[C@@H](CCC(N)=O)C(=O)N[C@H](C(=O)N[C@@H](CC(C)C)C(=O)N[C@@H](C)C(=O)N[C@@H](CCC(N)=O)C(=O)N[C@H](C(N)=O)C(C)C)[C@@H](C)CC)[C@@H](C)O)[C@@H](C)CC)[C@@H](C)CC)C(C)C)C(C)C [compound 98] (Ac-IVLSLD[dV]PIKLK([AEEA-AEEA-γGlu-C18 diacid])KILLEQEKQKKQREQAETN[Aib]QILAQV-NH2) |
| 0.26 | 2100 | 137 | 7 | 9.7 | 0.0/0.0 ^ % | 0.0/0.0 ^ % | 82 | 37 |  | CC[C@H](C)[C@H](NC(C)=O)C(=O)N[C@H](C(=O)N[C@@H](CC(C)C)C(=O)N[C@@H](CO)C(=O)N[C@@H](CC(C)C)C(=O)N[C@@H](CC(=O)O)C(=O)N[C@@H](C(=O)N1CCC[C@H]1C(=O)N[C@H](C(=O)N[C@@H](CCCCN)C(=O)N[C@@H](CC(C)C)C(=O)N[C@@H](CCCCNC(=O)CC[C@H](NC(=O)CCCCCCCCCCCCCCCCC(=O)O)C(=O)O)C(=O)N[C@@H](CCCCN)C(=O)N[C@H](C(=O)N[C@@H](CC(C)C)C(=O)N[C@@H](CC(C)C)C(=O)N[C@@H](CCC(=O)O)C(=O)N[C@@H](CCC(N)=O)C(=O)N[C@@H](CCC(=O)O)C(=O)N[C@@H](CCCCN)C(=O)N[C@@H](CCC(N)=O)C(=O)N[C@@H](CCCCN)C(=O)N[C@@H](C)C(=O)N[C@@H](CCC(N)=O)C(=O)N[C@@H](CCCNC(=N)N)C(=O)N[C@@H](CCC(=O)O)C(=O)N[C@@H](CCC(N)=O)C(=O)N[C@@H](C)C(=O)N[C@@H](CCC(=O)O)C(=O)N[C@H](C(=O)N[C@@H](CC(N)=O)C(=O)NC1(C(=O)N[C@@H](CCC(N)=O)C(=O)N[C@H](C(=O)N[C@@H](CC(C)C)C(=O)N[C@@H](C)C(=O)N[C@@H](CCC(N)=O)C(=O)N[C@H](C(N)=O)C(C)C)[C@@H](C)CC)CCNCC1)[C@@H](C)O)[C@@H](C)CC)[C@@H](C)CC)C(C)C)C(C)C [compound 187] (Ac-IVLSLD[dV]PIKLK([γGlu-C18 diacid])KILLEQEKQKAQREQAETN[Api]QILAQV-NH2) |
| 0.28 | 2270 | 138 | 6 | 10.6 | 0.0/0.0 ^ % | 0.0/0.0 ^ % | 77 | 32 | > 250 | CC[C@H](C)[C@H](NC(C)=O)C(=O)N[C@H](C(=O)N[C@@H](CC(C)C)C(=O)N[C@@H](CO)C(=O)N[C@@H](CC(C)C)C(=O)N[C@@H](CC(=O)O)C(=O)N[C@@H](C(=O)N1CCC[C@H]1C(=O)N[C@H](C(=O)N[C@@H](CCCCN)C(=O)N[C@@H](CC(C)C)C(=O)N[C@@H](CCCCNC(=O)CC[C@H](NC(=O)CCCCCCCCCCCCCCCCC(=O)O)C(=O)O)C(=O)N[C@@H](CCCCN)C(=O)N[C@H](C(=O)N[C@@H](CC(C)C)C(=O)N[C@@H](CC(C)C)C(=O)N[C@@H](CCC(=O)O)C(=O)N[C@@H](CCC(N)=O)C(=O)N[C@@H](CCC(=O)O)C(=O)N[C@@H](CCCCN)C(=O)N[C@@H](CCC(N)=O)C(=O)N[C@@H](CCCCN)C(=O)NC(C)(C)C(=O)N[C@@H](CCC(N)=O)C(=O)N[C@@H](CCCNC(=N)N)C(=O)N[C@@H](CCC(=O)O)C(=O)N[C@@H](CCC(N)=O)C(=O)N[C@@H](C)C(=O)N[C@@H](CCC(=O)O)C(=O)N[C@H](C(=O)N[C@@H](CC(N)=O)C(=O)NC1(C(=O)N[C@@H](CCC(N)=O)C(=O)N[C@H](C(=O)N[C@@H](CC(C)C)C(=O)N[C@@H](C)C(=O)N[C@@H](CCC(N)=O)C(=O)N[C@H](C(N)=O)C(C)C)[C@@H](C)CC)CCNCC1)[C@@H](C)O)[C@@H](C)CC)[C@@H](C)CC)C(C)C)C(C)C [compound 188] (Ac-IVLSLD[dV]PIKLK([γGlu-C18 diacid])KILLEQEKQK[Aib]QREQAETN[Api]QILAQV-NH2) |
| 0.3 | 1930 | 112 | 5 | 5.7 |  | 0.0/Not Tested % | 95 | 9 | > 250 | CC[C@H](C)[C@H](NC(C)=O)C(=O)N[C@H](C(=O)N[C@@H](CC(C)C)C(=O)N[C@@H](CO)C(=O)N[C@@H](CC(C)C)C(=O)N[C@@H](CC(=O)O)C(=O)N[C@@H](C(=O)N1CCC[C@H]1C(=O)N[C@H](C(=O)N[C@@H](CCCCN)C(=O)N[C@@H](CC(C)C)C(=O)N[C@@H](CCCCNC(=O)CC[C@H](NC(=O)CCCCCCCCCCCCCCCCC(=O)O)C(=O)O)C(=O)N[C@@H](CCCCN)C(=O)N[C@H](C(=O)N[C@@H](CC(C)C)C(=O)N[C@@H](CC(C)C)C(=O)N[C@@H](CCC(=O)O)C(=O)N[C@@H](CCC(N)=O)C(=O)N[C@@H](CCC(=O)O)C(=O)N[C@@H](CCCCN)C(=O)N[C@@H](CCC(N)=O)C(=O)N[C@@H](CCCCN)C(=O)NC(C)(C)C(=O)N[C@@H](CCC(N)=O)C(=O)N[C@@H](CCCNC(=N)N)C(=O)N[C@@H](CCC(=O)O)C(=O)N[C@@H](CCC(N)=O)C(=O)N[C@@H](C)C(=O)N[C@@H](CCC(=O)O)C(=O)N[C@H](C(=O)N[C@@H](CC(N)=O)C(=O)NC(C)(C)C(=O)N[C@@H](CCC(N)=O)C(=O)N[C@H](C(=O)N[C@@H](CC(C)C)C(=O)N[C@@H](C)C(=O)N[C@@H](CCC(N)=O)C(=O)N[C@H](C(N)=O)C(C)C)[C@@H](C)CC)[C@@H](C)O)[C@@H](C)CC)[C@@H](C)CC)C(C)C)C(C)C [compound 190] (Ac-IVLSLD[dV]PIKLK([γGlu-C18 diacid])KILLEQEKQK[Aib]QREQAETN[Aib]QILAQV-NH2) |
